Where “and” joins values, the source holds several entries; their conditions need not be identical. Equal entries are not always repeated. Where only a bound is given, the exact number is not on record here.

Assay [1] relates to Alzheimer's Disease Brain Homogenate (ADBH) Aβ aggregates. As to the kind of experiment: Misfolded Protein Assay, LoD in CSF: ADBH. The assay is classed as binding, human. The note with it: spiked into CSF. The protocol:
(§1) The Ab42 aggregates were prepared as previously described: fibrils were prepared per Stine et al (JBC 2003, 278, p11612), globulomers were prepared per Barghorn et al (J Neurology 2005 95 p834), ADDLs were prepared per Lambert et al (PNAS 1998, 95 p6448), and ASPDs were prepared per Noguchi et al (JBC 2009 284 p32895). Normal CSF was pooled from clinically characterized non-demented patient CSF samples. AD CSF was pooled from clinically-characterized AD patient samples. Alzheimer's Disease Brain Homogenate (ADBH) was prepared by sonication of clinically diagnosed AD patient brain samples in 0.2M.sucrose (1:10 w/v).
For the capture assay (Misfolded Protein Assay), aliquots of the beads (30 ul) were added to wells of a 96 well plate, followed by 125 ul of sample in 80:20 CSF:TBSTT. The plate was sealed and incubated for 1 h at 37 C with shaking. The plate was washed with TBST and the residual buffer removed. A denaturing solution (0.1 N NaOH) was added to each well and the plate heated to 80 C. for 30 min with shaking. After cooling the plate to RT, a neutralizing buffer (0.12 M NaH2PO3-0.4% TW20,) was added and the plate shaken briefly at RT. The assay was analyzed using the triplex Mesoscale Discovery ELISA kit for Aβ. The Aβ in the samples eluted from the beads were detected per the manufacturer's protocol. […]

The target in assay [2] is T1, Aβ42 Fibrils (Homo sapiens, UniProt P05067).
T1 construct: The Ab42 aggregates were prepared as previously described
As to the kind of experiment: Misfolded Protein Assay, LoD and capture in CSF: fibrils. Format: binding. To be noted: for LoD: spiked into CSF. The protocol:
as §1
For the capture assay (Misfolded Protein Assay), aliquots of the beads (30 ul) were added to wells of a 96 well plate, followed by 125 ul of sample in 80:20 CSF:TBSTT. The plate was sealed and incubated for 1 h at 37 C with shaking. The plate was washed with TBST and the residual buffer removed. A denaturing solution (0.1 N NaOH) was added to each well and the plate heated to 80 C. for 30 min with shaking. After cooling the plate to RT, a neutralizing buffer (0.12 M NaH2PO3-0.4% TW20,) was added and the plate shaken briefly at RT. The assay was analyzed using the triplex Mesoscale Discovery ELISA kit for Aβ. The Aβ in the samples eluted from the beads were detected per the manufacturer's protocol.
For the Limit of Detection (LoD) studies, serial dilutions of each aggregate were spiked into CSF and were assayed per the protocol described above. The LoD was defined as 2× over background levels.
This pattern minors the capture selectivity observed when these species are tested with 3 ul of PSR1 beads and 1 ng/mL of aggregate.

T1 sequence (P05067 672-713 limits assumed): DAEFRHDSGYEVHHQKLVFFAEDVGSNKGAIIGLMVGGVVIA

Consider Nab-Nab-Nab-Nbn-Nab-Nbn [PSR1], for which the LoD was less than 0.2 amol in assay [1]; less than 2 amol in assay [2]; ~50 pg/mL and 50 pg/mL in assay [2] (LoD = 2× over background). Further, in assay [2] (3 ul of beads and 1 ng/mL of aggregate), the “capture of Fibril” value is listed as 3636.
